Where two headings read alike, the source gives them in different places.
Experiments:
[1] = biological target: human 5-HT2A (h5-HT2A) receptor (Homo sapiens (Human), UniProt P28223); assay: FLIPR assay, human 5-HT2A receptor under agonist mode; format: cell-based; settings: FLIPR calcium
Procedure: I. Assessment of the Activated Effect of Exemplary Compounds of Formula I Targeting on Human 5-HT2A (h5-HT2A) Receptor Under Agonist Mode:
1. the Cells were cultured in cell culture medium (DMEM containing 10% FBS 1×penicillin-streptomycin 300 μg/ml G418 and 100 μg/ml hygromycin B) at 37° C., 5% (v/v) CO2.
2. One day before the assays, the cells were detached using TrypLE™ Express and cells were counted using cell counter.
3. 20000 cells/well were seeded in 30 μl/well culture medium to a 384-well cell plate and the cells were incubated overnight at 37° C., 5% (v/v) CO2.
4. On the assay day, 2× dye solution was prepared following the manual of the FLIPR® Calcium 6 Assay Kit: i. The dye was diluted with assay buffer(20 mM HEPES in 1×HBSS, PH7.4); ii. Probenecid was added to the final concentration of 5 mM; iii. Vortex vigorously for 1-2 minutes.
5. Medium was removed from cell plate by flicking the cell plate on towel papers.
6. 10 μl of assay buffer and 10 μl of 2× dye solution was added to each well of the cell plate.
7. The cell plate was placed on plate shaker, and the plate was agitated at 600 rpm for 2 minutes. The plate was incubated at 37° C. for 2 hours followed by additional 15-minute incubation at 25° C.
8. 3× compound in assay buffer was prepared: a. reference compounds were diluted to required concentration with DMSO. Compounds were added to a 384-well compound plate; b. Serial dilutions were performed; c. 10 mM test compounds were added to the compound plate, 3-fold serial dilutions were performed. d. […] 20 μl/well assay buffer was added to the compound plate; f. The plate was mixed on plate shaker for 2 mins;
i. The normalized fluorescence reading (RFU) was calculated as shown below, wherein Fmax and Fmin stand for maximum and minimum of calcium signal during defined time window: RFU=Fmax−Fmin
ii. The percentage activation was calculated by using following equation: […]
iii. EC50 was calculated by fitting % activation against log of compound concentrations with Hill equation using XLfit.

human 5-HT2A receptor = human 5-HT2A receptor (Homo sapiens (Human), UniProt P28223); assay: Radioligand binding assay ([3H]-ketanserin) on human 5-HT2A receptor; settings: [3H]-ketanserin competition; read-out: h5-HT2A IC50
Procedure: • i. The assay buffer was prepared following the table below;
• ii. 8 doses of reference and exemplary test compounds were prepared starting from 10 mM stock solution as requested by 5-fold serial dilutions with 100%; • iii. (v/v) DMSO was prepared: a. 50 μl/well of 0.5% (v/v) PEI was added to UniFilter-96 GF/B plates. The plates were sealed and incubates at 4° C. for 3 hrs; b. After incubation, the plates were washed 3 times with ice-cold wash buffer (50 mM Tris, pH7.4); • iv. Preparation of assay plates: a. Cell membrane was diluted with assay buffer and 330 μl/well was added to 96 round deep well plates to reach a concentration of 20 μg/well; b. 8 concentrations of reference or exemplary test compounds were prepared and added 110 μl/well to 96 round deep well plates; c. [3H]-ketanserin was diluted with assay buffer to 5 nM (5× final concentration) and added 110 μl/well to 96 round deep well plates. • v. The plate were centrifuged at 1000 rpm for 30 secs and then agitated at 600 rpm, R.T. for 5 min. • vi. The plates were sealed and incubated at 27° C. for 90 min. • vii. The incubation was stopped by vacuum filtration onto GF/B filter plates followed by 4 times washing with ice-cold wash buffer (50 mM Tris, pH7.4). • vii. […] The filter plates were sealed and 40 μl/well of scintillation cocktail added. • x. The plate was read by using a Microbeta2 microplate counter.
For reference and exemplary test compounds, the results are expressed as % Inhibition, using the normalization equation: N=100−100×(U−C2)/(C1−C2), where U is the unknown value, C1 is the average of high controls, and C2 is the average of low controls. The IC50 was determined by fitting percentage of inhibition as a function of compound concentrations with Hill equation using XLfit.

[2] = Liver microsomes stability, human; settings: for Predicted hepatic CL: Human liver microsomes, with NADPH; for Remaining Percentage (%) 0 min / Remaining Percentage (%) 60 min: Human; for CLint scaled at 2 μM / half-life at 2 μM / microsomal CLint at 2 μM: human, microsomes
Procedure: (§1) The objective of this study was to estimate in vitro metabolic stability of 1-12 in pooled human and male mouse liver microsomes. The concentrations of parent compounds in reaction systems were evaluated by LC-MS/MS for estimating the stability in pooled human and male mouse liver microsomes. The in vitro intrinsic clearances of test compounds were determined as well.
(§2) A master solution in the “Incubation Plate” containing phosphate buffer, ultra-pure H2O, MgCl2 solution and liver microsomes was made according to Table 3. The mixture was pre-warmed at 37° C. water bath for 5 minutes.
(§3) 40 μL of 10 mM NADPH solution was added to each well. The final concentration of NADPH was 1 mM. The negative control samples were prepared by replacing NADPH with 40 μL of ultra-pure H2O. Samples were prepared in duplicate. Negative controls were prepared in singlet.
(§4) The reaction was started with the addition of 4 μL of 200 μM exemplary test compounds or control compounds to each master solution to get the final concentration of 2 μM. This study was performed in duplicate.
(§5) Aliquots of 50 μL were taken from the reaction solution at 0, 15, 30, 45 and 60 minutes. The reaction solutions were stopped by the addition of 4 volumes of cold methanol with IS (100 nM alprazolam, 200 nM imipramine, 200 nM labetalol and 2 μM ketoprofen). Samples were centrifuged at 3,220 g for 40 minutes. Aliquot of 90 μL of the supernatant was mixed with 90 μL of ultra-pure H2O and then was used for LC-MS/MS analysis.
(§6) LC/MS analysis was performed for all samples from this study using a Shimadzu liquid chromatograph separation system equipped with degasser DUG-20A5R; solvent delivery unit LC-30AD; system controller SIL-30AC; column oven CTO-30A; CTC Analytics HTC PAL System; Mass spectrometric analysis was performed using an Triple Quad™ 5500 instrument.
(§7) All calculations were carried out using Microsoft Excel. Peak area ratios of test compound to internal standard (listed in the below table) were determined from extracted ion chromatograms.
(§8) All calculations were carried out using Microsoft Excel. Peak areas were determined from extracted ion chromatograms. The slope value, k, was determined by linear regression of the natural logarithm of the remaining percentage of the parent drug vs. incubation time curve.
(§9) The in vitro half-life (in vitro t½) was determined from the slope value:
(§10) Conversion of the in vitro t½ (min) into the in vitro intrinsic clearance (in vitro CLint, in μL/min/mg proteins) was done using the following equation (mean of duplicate determinations): […]

[3] = Liver microsomes stability, rat; settings: for Predicted hepatic CL: Rat liver microsomes, with NADPH; for Remaining Percentage (%) 0 min / Remaining Percentage (%) 60 min: Rat; for CLint scaled at 2 μM / half-life at 2 μM / microsomal CLint at 2 μM: rat, microsomes
Procedure: as §1, §2, §3, §4, §5, §6, §7, §8, §9, §10

[4] = Liver microsomes stability, mouse; settings: for Remaining Percentage (%) 0 min / Remaining Percentage (%) 60 min: Mouse; for CLint scaled at 2 μM / half-life at 2 μM / microsomal CLint at 2 μM: male, mouse, microsomes
Procedure: as §1, §2, §3, §4, §5, §6, §7, §8, §9, §10

[5] = cited from earlier work
[6] = Mouse liver microsomes, with NADPH

Row | Compound | EC50 [1] | IC50 (human 5-HT2A receptor) | Predicted hepatic CL [2] | Remaining Percentage (%) 0 min ([2]; With NADPH) | Remaining Percentage (%) 60 min ([2]; With NADPH) | Remaining Percentage (%) 0 min ([2]; Without NADPH) | Remaining Percentage (%) 60 min ([2]; Without NADPH) | CLint scaled at 2 μM [2] | half-life at 2 μM [2] | microsomal CLint at 2 μM [2] | Predicted hepatic CL [3] | Remaining Percentage (%) 0 min ([3]; With NADPH) | Remaining Percentage (%) 60 min ([3]; With NADPH) | Remaining Percentage (%) 0 min ([3]; Without NADPH) | Remaining Percentage (%) 60 min ([3]; Without NADPH) | CLint scaled at 2 μM [3] | half-life at 2 μM [3] | microsomal CLint at 2 μM [3] | Predicted hepatic CL [4, 6] | Remaining Percentage (%) 0 min ([4]; With NADPH) | also measured
1 | [2H]C([2H])N1CCC(c2c[nH]c3cccc(OCc4ccccc4)c23)C1 (single isomer, unassigned) [Compound I-36, 4-(benzyloxy)-3-(1-(methyl-d2)pyrrolidin-3-yl)-1H-indole] | > 10 µM | > 10 µM | 0.7506 L/h/kg | 100.00% | 46.97% | 100.00% | 112.84% | 1.9 L/h/kg | 55 min | 25.2 µL/min/mg | 2.014 L/h/kg | 100.00% | 23.82% | 100.00% | 95.23% | 5.14 L/h/kg | 29 min | 47.8 µL/min/mg | 4.497 L/h/kg | 100.00% | Remaining Percentage (%) 60 min ([4]; With NADPH): 4.62%; Remaining Percentage (%) 0 min ([4]; Without NADPH): 100.00%; Remaining Percentage (%) 60 min ([4]; Without NADPH): 101.31%; CLint scaled at 2 μM [4]: 26.9 L/h/kg; half-life at 2 μM [4]: 13.5 min; microsomal CLint at 2 μM [4]: 102 µL/min/mg
2 | [2H]C1([2H])CC(c2c[nH]c3cccc(O)c23)C([2H])([2H])N1 (stereo not drawn) [Compound I-33, 3-(pyrrolidin-3-yl-2,2,5,5-d4)-1H-indol-4-ol] | > 10 µM | < 1 µM | 0.0744 L/h/kg | 100.00% | 96.89% | 100.00% | 115.64% | 0.0792 L/h/kg | 1320 min | 1.05 µL/min/mg | 0.909 L/h/kg | 100.00% | 70.49% | 100.00% | 105.30% | 1.25 L/h/kg | 119 min | 11.7 µL/min/mg | 0 L/h/kg | 100.00% | T1/2 (min) ([4]; Mouse liver microsomes, with NADPH, 2 μM): ∞; Remaining Percentage (%) 60 min ([4]; With NADPH): 103.45%; Remaining Percentage (%) 0 min ([4]; Without NADPH): 100.00%; Remaining Percentage (%) 60 min ([4]; Without NADPH): 118.32%
3 | [2H]C1([2H])CC(c2c[nH]c3cccc(OCc4ccccc4)c23)C([2H])([2H])N1C (single isomer, unassigned) [Compound I-37, 4-(benzyloxy)-3-(1-methylpyrrolidin-3-yl-2,2,5,5-d4)-1H-indole] | > 10 µM | < 1 µM | 0.57 L/h/kg | 100.00% | 65.70% | 100.00% | 99.55% | 1.05 L/h/kg | 99 min | 14 µL/min/mg | 1.569 L/h/kg | 100.00% | 43.53% | 100.00% | 101.84% | 2.98 L/h/kg | 50 min | 27.7 µL/min/mg | 3.306 L/h/kg | 100.00% | Remaining Percentage (%) 60 min ([4]; With NADPH): 37.75%; Remaining Percentage (%) 0 min ([4]; Without NADPH): 100.00%; Remaining Percentage (%) 60 min ([4]; Without NADPH): 93.26%; CLint scaled at 2 μM [4]: 8.52 L/h/kg; half-life at 2 μM [4]: 42.7 min; microsomal CLint at 2 μM [4]: 32.5 µL/min/mg
4 | CN(C)CCc1c[nH]c2cccc(OP(=O)(O)O)c12 [Psilocybin, 4-phosphoryloxy-N,N-dimethyltrypatmine] | – | – | – | – | – | – | – | – | – | – | – | – | – | – | – | – | – | – | – | – | abstinence rate ([5]; 12 months follow-up): 67%; abstinence rate ([5]; six months follow-up): 80%

Reference: patent US20240051978A1, “3-CYCLIC AMINE-INDOLE DERIVATIVES AS SEROTONERGIC AGENTS FOR THE TREATMENT OF CNS DISORDERS” (MINDSET PHARMA INC., priority 2020, published 2024)
